Our source for the IC50 values is patent publication US10906915B2, “Substituted pyrazoloazepin-4-ones and their use as phosphodiesterase inhibitors” (LEO Pharma A/S, priority 2016, dated 2021).

Bounds are passed on as bounds.

Chain of human PDE4D catalytic domain (Q08499 380-740 limits assumed): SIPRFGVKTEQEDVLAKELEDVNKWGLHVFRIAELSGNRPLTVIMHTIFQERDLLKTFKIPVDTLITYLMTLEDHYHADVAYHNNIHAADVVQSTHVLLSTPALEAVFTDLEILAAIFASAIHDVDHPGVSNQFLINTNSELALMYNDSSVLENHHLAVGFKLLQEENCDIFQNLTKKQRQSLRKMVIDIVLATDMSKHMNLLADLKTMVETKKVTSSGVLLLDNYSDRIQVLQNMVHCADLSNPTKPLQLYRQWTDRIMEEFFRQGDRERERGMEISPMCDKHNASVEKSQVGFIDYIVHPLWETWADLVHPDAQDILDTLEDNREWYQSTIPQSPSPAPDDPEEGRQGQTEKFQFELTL

The target in the test is human PDE4D catalytic domain (UniProt no. Q08499) (Homo sapiens (Human), UniProt Q08499). Nature of the test: PDE4 assay (TR-FRET, FAM-cAMP cleavage). In kind it is biochemical. The note with it: human PDE4D catalytic domain; molar concentration giving 50% inhibition of substrate cleavage; read-out: PDE4 IC50 range. The procedure, abridged:
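Read-out is time-resolved FRET from Tb donor to FAM-AMP captured on trivalent-metal nanoparticles added to stop the reaction. Substrate was a mix of plain and FAM-labelled cAMP, cleaved by human PDE4D catalytic domain ([…]) with titrated compound; IC50 ranges (nM) versus controls.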
As a reminder, the IC50 is the midpoint of a concentration-inhibition curve. With `CCc1nn(C[C@@H](C)COC(=O)c2cc(OC)cc(C(F)(F)F)c2)c2c1C(=O)NCC1(CCOCC1)C2` [Example 232, [(2R)-3-(3-ethyl-4-oxo-spiro[6,8-dihydro-5H-pyrazolo[4,3-c]azepine-7,4′-tetrahydropyran]-1-yl)-2-methyl-propyl] 3-methoxy-5-(trifluoromethyl)benzoate], the IC50 was under 100 nM.
The result for `CCc1nn(C[C@@H](C)COC(=O)c2ccc(C(F)(F)F)c(OC)c2)c2c1C(=O)NCC1(CCOCC1)C2` [Example 233, [(2R)-3-(3-ethyl-4-oxo-spiro[6,8-dihydro-5H-pyrazolo[4,3-c]azepine-7,4′-tetrahydropyran]-1-yl)-2-methyl-propyl] 3-methoxy-4-(trifluoromethyl)benzoate] reads under 100 nM; that for `CCc1nn(C[C@@H](C)COC(=O)c2ccc(C(F)(F)F)c(Cl)c2)c2c1C(=O)NCC1(CCOCC1)C2` [Example 234, [(2R)-3-(3-ethyl-4-oxo-spiro[6,8-dihydro-5H-pyrazolo[4,3-c]azepine-7,4′-tetrahydropyran]-1-yl)-2-methyl-propyl] 3-chloro-4-(trifluoromethyl)benzoate], under 100 nM.
In the case of `CCc1nn(C[C@@H](C)COC(=O)c2cccc(C(F)(F)F)c2Cl)c2c1C(=O)NCC1(CCOCC1)C2` [Example 235, [(2R)-3-(3-ethyl-4-oxo-spiro [6,8-dihydro-5H-pyrazolo[4,3-c]azepine-7,4′-tetrahydropyran]-1-yl)-2-methyl-propyl] 2-chloro-3-(trifluoromethyl)benzoate], the IC50 was under 100 nM.
For `CCc1nn(C[C@@H](C)COC(=O)c2ccc(Cl)cc2C(F)(F)F)c2c1C(=O)NCC1(CCOCC1)C2` [Example 236, [(2R)-3-(3-ethyl-4-oxo-spiro[6,8-dihydro-5H-pyrazolo[4,3-c]azepine-7,4′-tetrahydropyran]-1-yl)-2-methyl-propyl] 4-chloro-2-(trifluoromethyl)benzoate] the value was under 100 nM.
With `CCc1nn(C[C@@H](C)COC(=O)c2ccc(C(F)(F)F)cc2Cl)c2c1C(=O)NCC1(CCOCC1)C2` [Example 237, [(2R)-3-(3-ethyl-4-oxo-spiro[6,8-dihydro-5H-pyrazolo[4,3-c]azepine-7,4′-tetrahydropyran]-1-yl)-2-methyl-propyl] 2-chloro-4-(trifluoromethyl)benzoate], the IC50 is under 100 nM.
The result for `CCc1nn(C[C@@H](C)COC(=O)c2ccc(Cl)c(C(F)(F)F)c2)c2c1C(=O)NCC1(CCOCC1)C2` [Example 238, [(2R)-3-(3-ethyl-4-oxo-spiro[6,8-dihydro-5H-pyrazolo[4,3-c]azepine-7,4′-tetrahydropyran]-1-yl)-2-methyl-propyl] 4-chloro-3-(trifluoromethyl)benzoate] reads under 100 nM; that for `CCc1nn(C[C@@H](C)COC(=O)c2cc(Cl)ccc2C(F)(F)F)c2c1C(=O)NCC1(CCOCC1)C2` [Example 239, [(2R)-3-(3-ethyl-4-oxo-spiro[6,8-dihydro-5H-pyrazolo[4,3-c]azepine-7,4′-tetrahydropyran]-1-yl)-2-methyl-propyl] 5-chloro-2-(trifluoromethyl)benzoate], under 100 nM.
For the compound `CCc1nn(C[C@@H](C)COC(=O)c2cc(Cl)cc(C(F)(F)F)c2)c2c1C(=O)NCC1(CCOCC1)C2` [Example 240, [(2R)-3-(3-ethyl-4-oxo-spiro[6,8-dihydro-5H-pyrazolo[4,3-c]azepine-7,4′-tetrahydropyran]-1-yl)-2-methyl-propyl] 3-chloro-5-(trifluoromethyl)benzoate], the IC50 was under 100 nM.
For `CCc1nn(C[C@@H](C)COC(=O)c2cc(C(F)(F)F)ccc2Cl)c2c1C(=O)NCC1(CCOCC1)C2` [Example 241, [(2R)-3-(3-ethyl-4-oxo-spiro[6,8-dihydro-5H-pyrazolo[4,3-c]azepine-7,4′-tetrahydropyran]-1-yl)-2-methyl-propyl] 2-chloro-5-(trifluoromethyl)benzoate], the IC50 was under 100 nM.
The result for `CCc1nn(C[C@@H](C)COC(=O)c2cccc(S(=O)(=O)C(C)C)c2)c2c1C(=O)NCC1(CCOCC1)C2` [Example 242, [(2R)-3-(3-ethyl-4-oxo-spiro[6,8-dihydro-5H-pyrazolo[4,3-c]azepine-7,4′-tetrahydropyran]-1-yl)-2-methyl-propyl] 3-isopropylsulfonylbenzoate] reads under 100 nM; that for `CCc1nn(C[C@@H](C)COC(=O)c2ccc(S(=O)(=O)C(C)C)cc2)c2c1C(=O)NCC1(CCOCC1)C2` [Example 243, [(2R)-3-(3-ethyl-4-oxo-spiro[6,8-dihydro-5H-pyrazolo[4,3-c]azepine-7,4′-tetrahydropyran]-1-yl)-2-methyl-propyl] 4-isopropylsulfonylbenzoate], under 100 nM.
The result for `CCc1nn(C[C@@H](C)COC(=O)c2ccc(S(=O)(=O)N3CCCC3)cc2)c2c1C(=O)NCC1(CCOCC1)C2` [Example 245, [(2R)-3-(3-ethyl-4-oxo-spiro[6,8-dihydro-5H-pyrazolo[4,3-c]azepine-7,4′-tetrahydropyran]-1-yl)-2-methyl-propyl] 4-pyrrolidin-1-ylsulfonylbenzoate] reads under 100 nM; that for `CCc1nn(C[C@@H](C)COC(=O)c2cccc(S(=O)(=O)N3CCCC3)c2)c2c1C(=O)NCC1(CCOCC1)C2` [Example 246, [(2R)-3-(3-ethyl-4-oxo-spiro[6,8-dihydro-5H-pyrazolo[4,3-c]azepine-7,4′-tetrahydropyran]-1-yl)-2-methyl-propyl] 3-pyrrolidin-1-ylsulfonylbenzoate], under 100 nM; that for `CCc1nn(C[C@@H](C)COC(=O)c2ccc(C(F)(F)F)c(C(F)(F)F)c2)c2c1C(=O)NCC1(CCOCC1)C2` [Example 247, [(2R)-3-(3-ethyl-4-oxo-spiro[6,8-dihydro-5H-pyrazolo[4,3-c]azepine-7,4′-tetrahydropyran]-1-yl)-2-methyl-propyl] 3,4-bis(trifluoromethyl)benzoate], under 100 nM.
For `CCc1nn(C[C@@H](C)COC(=O)c2cccc(S(=O)(=O)N3CCOCC3)c2)c2c1C(=O)NCC1(CCOCC1)C2` [Example 248, [(2R)-3-(3-ethyl-4-oxo-spiro[6,8-dihydro-5H-pyrazolo[4,3-c]azepine-7,4′-tetrahydropyran]-1-yl)-2-methyl-propyl] 3-morpholinosulfonylbenzoate] the value was under 100 nM; for `CCc1nn(C[C@@H](C)COC(=O)c2ccc(S(=O)(=O)N3CCOCC3)cc2)c2c1C(=O)NCC1(CCOCC1)C2` [Example 249, [(2R)-3-(3-ethyl-4-oxo-spiro[6,8-dihydro-5H-pyrazolo[4,3-c]azepine-7,4′-tetrahydropyran]-1-yl)-2-methyl-propyl] 4-morpholinosulfonylbenzoate], under 100 nM; for `CCc1nn(C[C@@H](C)COC(=O)c2ccc(S(=O)(=O)N3CCN(C(C)=O)CC3)cc2)c2c1C(=O)NCC1(CCOCC1)C2` [Example 250, [(2R)-3-(3-ethyl-4-oxo-spiro[6,8-dihydro-5H-pyrazolo[4,3-c]azepine-7,4′-tetrahydropyran]-1-yl)-2-methyl-propyl] 4-(4-acetylpiperazin-1-yl)sulfonylbenzoate], under 100 nM.
Turning to `CCc1nn(C[C@@H](C)COC(=O)c2cccc(S(=O)(=O)N3CCN(C(C)=O)CC3)c2)c2c1C(=O)NCC1(CCOCC1)C2` [Example 251, [(2R)-3-(3-ethyl-4-oxo-spiro[6,8-dihydro-5H-pyrazolo[4,3-c]azepine-7,4′-tetrahydropyran]-1-yl)-2-methyl-propyl] 3-(4-acetylpiperazin-1-yl)sulfonylbenzoate], the IC50 was under 100 nM.
